Test results as given in patent US20070172469A1, “Methods For Inhibiting Viral Replication In Vivo” (priority 2002, published 2007).
Read-outs that look alike come from different tables or passages of the source.

Assays:
[1] = Toxicity in AVA5 cells, neutral red dye uptake; details: human, AVA5 cells (HCV RNA replicating cell line derived from Huh7)
AVA5 cells = assay: Actin mRNA level in AVA5 cells (nonspecific inhibitory activity); assay type: cell-based, human; details: 3 days, ADI-PEG20 0.01 IU/ml, alpha interferon 10 IU/ml, ribavirin 100 μM
HCV [2] = assay: In vitro HCV RNA replication assay in AVA5 cells (dot blot); assay type: cell-based, Hepatitis C virus (HCV); details: for IC50 / IC90: HCV mRNA levels
[3] = cited from earlier work
HCV [4] = details: cited from earlier work
[5] = humans chronically infected with HCV

**Q.** For `NC(=O)c1ncn([C@@H]2O[C@H](CO)[C@@H](O)[C@H]2O)n1` [ribavirin, 1-β-D-ribo-furanosyl-1,2,4-trizole-3-carboxamide], which CC50 at 3 days [1] is on record?
**A.** 74 µM

**Q.** What about the “mRNA % inhibition of actin” value (AVA5 cells) of the same compound?
**A.** 98%

**Q.** What about the IC50 (HCV [2]; Hepatitis C virus, 72 h, AVA5 cells, 3 days, read-out: IC50) of the same compound?
**A.** > 10 µM

**Q.** And the IC90 (HCV [2]; Hepatitis C virus, 72 h, AVA5 cells, 3 days, read-out: IC90)?
**A.** > 10 µM

**Q.** What about the inhibition at 100 µM (HCV [2]; Hepatitis C virus, Ava5, 72 h) of the same compound?
**A.** 25%

**Q.** With alpha interferon as the compound, how does the “patients with influenza-like illness with fever, chills, myalgias and malaise” value ([3]; PEG and non PEG formulated versions) read?
**A.** up to 82%

**Q.** What about the “patients with neuropsychiatric complications” value ([3]; depression, irritability, anxiety) of the same compound?
**A.** ~20%

**Q.** And the alopecia ([3]; human, in vivo)?
**A.** ~5%

**Q.** What about the “bone marrow suppression with granulocytopenia, anemia or thrombocytopenia” value ([3]; human, in vivo) of the same compound?
**A.** ~5%

**Q.** What about the “patients in whom effective” value (HCV [4]; [5]) of the same compound?
**A.** ~50%

**Q.** And the “treatment required to achieve a 50% reduction in HCV titers” value (HCV [4]; [5])?
**A.** 3-6 months

**Q.** What about the “patients who initially responded to the therapy” value (HCV [4]; various clinical trials) of the same compound?
**A.** approximately 40%

**Q.** And the “responders who relapsed after the treatment ended” value (HCV [4]; various clinical trials)?
**A.** 70%

**Q.** And the “mRNA % inhibition of actin” value (AVA5 cells)?
**A.** 11%

**Q.** What about the “% inhibition of HCV” value (HCV [2]; AVA5 cells, 3 days, ADI-PEG20 0.01 IU/ml, alpha interferon 10 IU/ml, ribavirin 100 μM) of the same compound?
**A.** 92%

**Q.** What about the IC50 (HCV [2]; AVA5 cells, 3 days) of the same compound?
**A.** 2.1 IU/ml

**Q.** And the IC90 (HCV [2]; AVA5 cells, 3 days)?
**A.** 9.0 IU/ml

**Q.** And the SI (HCV [2]; selectivity index CC50/EC50, AVA5 cells)?
**A.** >4762
